Measured values published in US20120058989A1, “ANTIBACTERIAL FLUOROQUINOLONE ANALOGS” (Achaogen, Inc., priority 2008, published 2012).
≈ marks a conversion by molar mass, not a printed value. Read-outs that look alike come from different tables or passages of the source. One block for each compound: values may come before it.

Columns and labels:
Test in all cases: MIC, CLSI broth microdilution
Assay type in all cases: cell-based
[1] = tested on: S. aureus ASAU1031 (Fluoroquinolone-resistant); conditions: for MIC: Staphylococcus aureus
In short: (§1)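 CLSI M7-A7 broth microdilution in Mueller Hinton Broth using two-fold compound serial dilutions. Inoculum was prepared from the previous day's agar colonies at a final 5×10^5 CFU/mL. Plates were incubated at 35° C for 20 hours in ambient air.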

[2] = tested on: S. aureus ASAU002 (Fluoroquinolone-susceptible, ATCC33591 (MRSA)); conditions: Table 3
In short: as §1

[3] = tested on: P. aeruginosa APAE001 (Fluoroquinolone-susceptible, ATCC27853); conditions: for MIC: Pseudomonas aeruginosa
In short: as §1

[4] = tested on: S. pneumoniae ASPN001 (Fluoroquinolone-susceptible, ATCC49619); conditions: for MIC: Streptococcus pneumoniae
In short: as §1

[5] = tested on: S. pneumoniae ASPN1018 (Fluoroquinolone-resistant); conditions: Table 3
In short: as §1

[6] = tested on: S. aureus ASAU1033 (Fluoroquinolone-resistant); conditions: Table 3
In short: as §1

[7] = tested on: E. coli AECO002 (Fluoroquinolone susceptible); conditions: Table 3
In short: as §1

[8] = tested on: P. aeruginosa APAE002 (Fluoroquinolone susceptible); conditions: Table 3
In short: as §1

[9] = tested on: E. coli AECO066 (Fluoroquinolone-resistant); conditions: for MIC: Escherichia coli
In short: as §1

[10] = tested on: A. baumannii AABA1065 (Fluoroquinolone-susceptible); conditions: for MIC: Acinetobacter baumannii
In short: as §1

[11] = tested on: A. baumannii AABA1020 (Fluoroquinolone-resistant); conditions: Table 3
In short: as §1

[12] = tested on: E. coli AECO086 (Fluoroquinolone-resistant); conditions: Table 3
In short: as §1

[13] = tested on: S. aureus ASAU001 (Fluoroquinolone-susceptible, ATCC29213); conditions: for MIC: Staphylococcus aureus
In short: as §1

[14] = tested on: E. coli AECO001 (Fluoroquinolone susceptible, ATCC25922); conditions: for MIC: Escherichia coli
In short: as §1

[15] = tested on: P. aeruginosa APAE054 (Fluoroquinolone-resistant); conditions: for MIC: Pseudomonas aeruginosa
In short: as §1

[16] = tested on: S. pneumoniae ASPN002 (Fluoroquinolone-susceptible, ATCC10813); conditions: Table 3
In short: as §1

[17] = tested on: S. pneumoniae ASPN1027 (Fluoroquinolone-resistant); conditions: for MIC: Streptococcus pneumoniae
In short: as §1

[18] = tested on: A. baumannii AABA1009 (Fluoroquinolone-resistant); conditions: for MIC: Acinetobacter baumannii, Table 2, read-out: MIC AABA 1009; for MIC AABA 1009: Table 2
In short: as §1

[19] = Table 2, read-out: MIC ASAU 1031
[20] = Table 2, read-out: MIC APAE 001
[21] = Table 2, read-out: MIC ASPN 001
[22] = Table 2, read-out: MIC AECO 066
[23] = Table 2, read-out: MIC AABA 1065
[24] = Table 2, read-out: MIC ASAU 001
[25] = Table 2, 35° C., 20 hours, read-out: MIC AECO 001
[26] = Table 2, read-out: MIC APAE 054
[27] = Table 2, read-out: MIC ASPN 1027

SMILES: N[C@H]1C[C@H]2CC=Cc3c(c(F)cc4c(=O)c(C(=O)O)cn(C5CC5)c34)N2C1.O=C(O)C(F)(F)F [7B/18, (7aR,9S)-9-Amino-4-cyclopropyl-12-fluoro-1-oxo-4,7,7a,8,9,10-hexahydro-1H-pyrrolo[1′,2′:1,7]azepino[2,3h]-quinoline-2-carboxylic acid trifluoroacetate]
MIC ASAU 1031 ([1]; Table 2): B (MIC's of greater than 1.0 μg/mL to 8.0 μg/mL = B)
MIC ASAU 1031 ([1]; Table 3): C (MIC's of 2.0 μg/mL to 8.0 μg/mL = C)
MIC ASAU002 [2]: A (MIC's of less than 1.0 = A)
MIC APAE 001 ([3]; Table 2): A (MIC's of 1.0 μg/mL or less = A)
MIC APAE 001 ([3]; Table 3): A (MIC's of less than 1.0 = A)
MIC ASPN 001 ([4]; Table 2): A (MIC's of 1.0 μg/mL or less = A)
MIC ASPN 001 ([4]; Table 3): A (MIC's of less than 1.0 = A)
MIC ASPN1018 [5]: B (MIC's of 1.0 μg/mL to 2.0 μg/mL = B)
MIC ASAU1033 [6]: D (MIC's of greater than 8.0 μg/mL = D)
MIC AECO002 [7]: A (MIC's of less than 1.0 = A)
MIC APAE002 [8]: A (MIC's of less than 1.0 = A)
MIC AECO 066 ([9]; Table 2): B (MIC's of greater than 1.0 μg/mL to 8.0 μg/mL = B)
MIC AECO 066 ([9]; Table 3): C (MIC's of 2.0 μg/mL to 8.0 μg/mL = C)
MIC AABA 1065 ([10]; Table 2): A (MIC's of 1.0 μg/mL or less = A)
MIC AABA 1065 ([10]; Table 3): A (MIC's of less than 1.0 = A)
MIC AABA1020 [11]: C (MIC's of 2.0 μg/mL to 8.0 μg/mL = C)
MIC AECO086 [12]: C (MIC's of 2.0 μg/mL to 8.0 μg/mL = C)
MIC ASAU 001 ([13]; Table 2): A (MIC's of 1.0 μg/mL or less = A)
MIC ASAU 001 ([13]; Table 3): A (MIC's of less than 1.0 = A)
MIC AECO 001 ([14]; Table 2, 35° C., 20 hours): A (MIC's of 1.0 μg/mL or less = A)
MIC AECO 001 ([14]; Table 3): A (MIC's of less than 1.0 = A)
MIC APAE 054 ([15]; Table 2): C (MIC's of greater than 8.0 μg/mL = C)
MIC APAE 054 ([15]; Table 3): D (MIC's of greater than 8.0 μg/mL = D)
MIC ASPN002 [16]: A (MIC's of less than 1.0 = A)
MIC ASPN 1027 ([17]; Table 2): B (MIC's of greater than 1.0 μg/mL to 8.0 μg/mL = B)
MIC ASPN 1027 ([17]; Table 3): C (MIC's of 2.0 μg/mL to 8.0 μg/mL = C)
MIC AABA 1009 [18]: C (MIC's of greater than 8.0 μg/mL = C)

SMILES: N[C@H]1C[C@H]2CCOc3c(c(F)cc4c(=O)c(C(=O)O)cn(C5CC5)c34)N2C1 [32/2]
MIC [1, 19]: > 8 µg/mL
MIC [3, 20]: ≤ 1 µg/mL
MIC [4, 21]: ≤ 1 µg/mL
MIC [9, 22]: > 8 µg/mL
MIC [10, 23]: ≤ 1 µg/mL
MIC [13, 24]: ≤ 1 µg/mL
MIC [14, 25]: ≤ 1 µg/mL
MIC [15, 26]: > 8 µg/mL
MIC [17, 27]: > 8 µg/mL
MIC [18]: > 8 µg/mL

SMILES: CO/N=C1\CN(c2nc3c(cc2F)c(=O)c(C(=O)O)cn3C2CC2)CC1CN (stereo not drawn) [Gemifloxacin, reference compound]
MIC [1, 19]: > 8 µg/mL
MIC [3, 20]: ≤ 1 µg/mL
MIC [4, 21]: ≤ 1 µg/mL
MIC [9, 22]: > 8 µg/mL
MIC [10, 23]: ≤ 1 µg/mL
MIC [13, 24]: ≤ 1 µg/mL
MIC [14, 25]: ≤ 1 µg/mL
MIC [15, 26]: > 8 µg/mL
MIC [17, 27]: 1 to 8 µg/mL (≈ 2.57 to 20.5 µM)
MIC [18]: > 8 µg/mL

More lines, main results first:

MIC [1, 19]: 1 to 8 µg/mL (≈ 2.69 to 21.5 µM)
MIC ([1]; Table 3): 2 to 8 µg/mL (≈ 5.38 to 21.5 µM)
MIC ([2]; Staphylococcus aureus): < 1 µg/mL
MIC [3, 20]: 1 to 8 µg/mL (≈ 2.69 to 21.5 µM)
MIC ([3]; Table 3): < 1 µg/mL
MIC [4, 21]: ≤ 1 µg/mL
MIC ([4]; Table 3): < 1 µg/mL
MIC ([5]; Streptococcus pneumoniae): 1 to 2 µg/mL (≈ 2.69 to 5.38 µM)
MIC ([6]; Staphylococcus aureus): > 8 µg/mL
MIC ([7]; Escherichia coli): < 1 µg/mL
MIC ([8]; Pseudomonas aeruginosa): < 1 µg/mL
MIC [9, 22]: 1 to 8 µg/mL (≈ 2.69 to 21.5 µM)
MIC ([9]; Table 3): 2 to 8 µg/mL (≈ 5.38 to 21.5 µM)
MIC [10, 23]: ≤ 1 µg/mL
MIC ([10]; Table 3): < 1 µg/mL
MIC ([11]; Acinetobacter baumannii): > 8 µg/mL
MIC ([12]; Escherichia coli): 2 to 8 µg/mL (≈ 5.38 to 21.5 µM)
MIC [13, 24]: ≤ 1 µg/mL
MIC ([13]; Table 3): < 1 µg/mL
MIC [14, 25]: ≤ 1 µg/mL
MIC ([14]; Table 3): < 1 µg/mL
MIC [15, 26]: > 8 µg/mL
MIC ([15]; Table 3): > 8 µg/mL
MIC ([16]; Streptococcus pneumoniae): < 1 µg/mL
MIC [17, 27]: 1 to 8 µg/mL (≈ 2.69 to 21.5 µM)
MIC ([17]; Table 3): 2 to 8 µg/mL (≈ 5.38 to 21.5 µM)
MIC [18]: > 8 µg/mL
SMILES: N[C@H]1C[C@H]2CCCc3c(c(F)cc4c(=O)c(C(=O)O)cn(C5CC5)c34)N2C1 [3/15]

MIC ASAU 1031 ([1]; Table 2): C (MIC's of greater than 8.0 μg/mL = C)
MIC ASAU 1031 ([1]; Table 3): D (MIC's of greater than 8.0 μg/mL = D)
MIC ASAU002 [2]: C (MIC's of 2.0 μg/mL to 8.0 μg/mL = C)
MIC APAE 001 ([3]; Table 2): C (MIC's of greater than 8.0 μg/mL = C)
MIC APAE 001 ([3]; Table 3): D (MIC's of greater than 8.0 μg/mL = D)
MIC ASPN 001 ([4]; Table 2): C (MIC's of greater than 8.0 μg/mL = C)
MIC ASPN 001 ([4]; Table 3): D (MIC's of greater than 8.0 μg/mL = D)
MIC ASPN1018 [5]: D (MIC's of greater than 8.0 μg/mL = D)
MIC ASAU1033 [6]: D (MIC's of greater than 8.0 μg/mL = D)
MIC AECO002 [7]: C (MIC's of 2.0 μg/mL to 8.0 μg/mL = C)
MIC APAE002 [8]: D (MIC's of greater than 8.0 μg/mL = D)
MIC AECO 066 ([9]; Table 2): C (MIC's of greater than 8.0 μg/mL = C)
MIC AECO 066 ([9]; Table 3): D (MIC's of greater than 8.0 μg/mL = D)
MIC AABA 1065 ([10]; Table 3): C (MIC's of 2.0 μg/mL to 8.0 μg/mL = C)
MIC AABA1020 [11]: D (MIC's of greater than 8.0 μg/mL = D)
MIC AECO086 [12]: D (MIC's of greater than 8.0 μg/mL = D)
MIC ASAU 001 ([13]; Table 3): C (MIC's of 2.0 μg/mL to 8.0 μg/mL = C)
MIC AECO 001 ([14]; Table 3): C (MIC's of 2.0 μg/mL to 8.0 μg/mL = C)
MIC APAE 054 ([15]; Table 2): C (MIC's of greater than 8.0 μg/mL = C)
MIC APAE 054 ([15]; Table 3): D (MIC's of greater than 8.0 μg/mL = D)
MIC ASPN002 [16]: D (MIC's of greater than 8.0 μg/mL = D)
MIC ASPN 1027 ([17]; Table 2): C (MIC's of greater than 8.0 μg/mL = C)
MIC ASPN 1027 ([17]; Table 3): D (MIC's of greater than 8.0 μg/mL = D)
MIC AABA 1009 [18]: C (MIC's of greater than 8.0 μg/mL = C)
SMILES: NC1CC2CCCc3c(c(F)cc4c(=O)c(C(=O)O)cn(C5CC5)c34)N2C1.O=C(O)C(F)(F)F [7C/29, (7aS,9S)-9-Amino-4-cyclopropyl-12-fluoro-1-oxo-4,5,6,7,7a,8,9,10-octahydro-1H-pyrrolo quinoline-2-carboxylic acid trifluoroacetate]
MIC AABA 1065 ([10]; Table 2): B (MIC's of greater than 1.0 μg/mL to 8.0 μg/mL = B)
MIC ASAU 001 ([13]; Table 2): B (MIC's of greater than 1.0 μg/mL to 8.0 μg/mL = B)
MIC AECO 001 ([14]; Table 2, 35° C., 20 hours): B (MIC's of greater than 1.0 μg/mL to 8.0 μg/mL = B)

MIC [1, 19]: > 8 µg/mL
MIC [3, 20]: 1 to 8 µg/mL (≈ 2.69 to 21.5 µM)
MIC [4, 21]: ≤ 1 µg/mL
MIC [9, 22]: > 8 µg/mL
MIC [10, 23]: > 8 µg/mL
MIC [13, 24]: ≤ 1 µg/mL
MIC [14, 25]: ≤ 1 µg/mL
MIC [15, 26]: > 8 µg/mL
MIC [17, 27]: 1 to 8 µg/mL (≈ 2.69 to 21.5 µM)
MIC [18]: > 8 µg/mL
SMILES: N[C@H]1CC2CCCc3c(c(F)cc4c(=O)c(C(=O)O)cn(C5CC5)c34)N2C1 (stereo partly drawn) [32/4]
